The target in this assay is T1, Syk kinase (Homo sapiens, UniProt P43405).
T1 construct: purchased
The assay is described as follows: Syk kinase inhibition, Caliper LabChip off-chip mobility-shift kinase assay. In kind it is biochemical. The settings on record: Caliper LabChip assay; read-out: Syk Enzyme IC50. Summed up:
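Purified Syk pre-incubated 15 min with compound in 100 mM HEPES pH 7.5, 1 mM DTT, 10 mM MgCl2 or MnCl2, 0.002% Brij-35, then 1.5 μM fluorescein peptide and ATP at apparent KM added; 1–1.5 h at room temperature, 4% DMSO, EDTA stop. Microfluidic mobility-shift product/substrate conversion gave % inhibition; IC50 from 12-point series (10–0.00003 μM) by 4-parameter fit.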
The term IC50 denotes the concentration that inhibits the measured activity by half. Consider `CC(C)(C)Nc1nc(Nc2cnccn2)cc2ccn(C(C)(C)C(N)=O)c(=O)c12` [compound 672], for which the IC50 came to 34 nM.
For the molecule `CC(C)(C)Nc1nc(-c2cnc(N)nc2)cc2ccn(C(C)(C)C(N)=O)c(=O)c12` [compound 673], the IC50 is 57 nM.
Next, `CC(C)(C)Nc1nc(Nc2c[n+]([O-])ccn2)cc2ccn(C[C@H](O)CO)c(=O)c12` [compound 674]: 7 nM; `CC(C)(C)Nc1nc(Nc2c[n+]([O-])ccn2)cc2ccn(C[C@@H](O)CO)c(=O)c12` [compound 675]: 6 nM; `CC(C)(C)Nc1nc(Nc2cnccn2)cc2ccn(C[C@@H](O)c3ccccc3)c(=O)c12` [compound 676]: 120 nM.
As for `COCC(O)Cn1ccc2cc(Nc3cnccn3)nc(NC(C)(C)C)c2c1=O` (centres unmarked) [compound 677], the figure is 12 nM.
Next, `CC(C)(C)Nc1nc(-c2cnc(N)nc2)cc2ccn(CC(=O)N3CCOCC3)c(=O)c12` [compound 678]: 78 nM.
Consider `CC(C)(C)Nc1nc(Nc2cnccn2)cc2cc[nH]c(=O)c12` [compound 679], for which the IC50 stood at 12 nM.
Next, `CC(C)(C)Nc1nc(Nc2cc(C(=O)O)ccn2)cc2ccn(CCO)c(=O)c12` [compound 680]: 643 nM; `CC(C)(C)Nc1nc(Nc2cc(C(N)=O)ccn2)cc2ccn(CCO)c(=O)c12` [compound 681]: 82 nM; `COCCNC(=O)c1ccnc(Nc2cc3ccn(CCO)c(=O)c3c(NC(C)(C)C)n2)c1` [compound 682]: 329 nM.
Next, `CN(C)CCNC(=O)c1ccnc(Nc2cc3ccn(CCO)c(=O)c3c(NC(C)(C)C)n2)c1` [compound 683]: 595 nM; `CC(=O)c1ccnc(Nc2cc3ccn(CCO)c(=O)c3c(NC(C)(C)C)n2)c1` [compound 684]: 51 nM; `C/C(=N\O)c1ccnc(Nc2cc3ccn(CCO)c(=O)c3c(NC(C)(C)C)n2)c1` [compound 685, (E)-8-(tert-butylamino)-2-(2-hydroxyethyl)-6-(4-(1-(hydroxyimino)ethyl)pyridin-2-ylamino)-2,7-naphthyridin-1(2H)-one]: 62 nM.
Next, `C/C(=N\OCCN(C)C)c1ccnc(Nc2cc3ccn(CCO)c(=O)c3c(NC(C)(C)C)n2)c1` [compound 686]: 246 nM; `CC(C)(C)Nc1nc(Nc2cc(C(=O)NCCc3c[nH]cn3)ccn2)cc2ccn(CCO)c(=O)c12` [compound 687]: 248 nM; `CC(C)(C)Nc1nc(Nc2cc(C(=O)N3CCCC(CO)C3)ccn2)cc2ccn(CCO)c(=O)c12` (centres unmarked) [compound 688]: 866 nM.
As for `CC(C)(C)Nc1nc(Nc2cc(-c3ccno3)ccn2)cc2ccn(CCO)c(=O)c12` [compound 689], the IC50 was found to be 151 nM.
For `CC(C)(C)Nc1nc(Nc2cc(-c3ccn[nH]3)ccn2)cc2ccn(CCO)c(=O)c12` [compound 690, 6-(4-(1H-pyrazol-5-yl)pyridin-2-ylamino)-8-(tert-butylamino)-2-(2-hydroxyethyl)-2,7-naphthyridin-1(2H)-one], the IC50 was 67 nM.
Next, `CC(C)(C)Nc1nc(Nc2cc(-c3ccnc(N)n3)ccn2)cc2ccn(CCO)c(=O)c12` [compound 691]: 59 nM; `CC(C)(C)Nc1nc(Nc2nccs2)cc2ccn(CCO)c(=O)c12` [compound 692]: 1020 nM.
Next, `CC(C)(C)Nc1nc(Nc2cc(CO)ccn2)cc2ccn(CCO)c(=O)c12` [compound 693]: 42 nM.
`COCCNCc1ccnc(Nc2cc3ccn(CCO)c(=O)c3c(NC(C)(C)C)n2)c1` [compound 694]: the IC50 stood at 237 nM.
For the molecule `CO/N=C(\C)c1ccnc(Nc2cc3ccn(CCO)c(=O)c3c(NC(C)(C)C)n2)c1` [compound 695], the IC50 came out at 431 nM.
On to `CC(C)(C)Nc1nc(Nc2ccc(F)cn2)cc2ccn(CCO)c(=O)c12` [compound 696], for which the IC50 stood at 328 nM.
For `CC(C)(C)Nc1nc(Nc2ccc(C#N)cn2)cc2ccn(CCO)c(=O)c12` [compound 697], the IC50 amounted to 208 nM.
For the molecule `CC(C)(C)Nc1nc(Nc2cc(C(C)(C)O)ccn2)cc2ccn(CCO)c(=O)c12` [compound 698, 8-(tert-butylamino)-2-(2-hydroxyethyl)-6-(4-(2-hydroxypropan-2-yl)pyridin-2-ylamino)-2,7-naphthyridin-1(2H)-one], the IC50 came out at 131 nM.
In the case of `CC(C)(C)Nc1nc(Nc2cc(S(C)(=O)=O)ccn2)cc2ccn(CCO)c(=O)c12` [compound 699], the IC50 is 99 nM.
Next, `CC(O)c1ccnc(Nc2cc3ccn(CCO)c(=O)c3c(NC(C)(C)C)n2)c1` (centres unmarked) [compound 700]: 12 nM.
Next, `CCn1ccc2cc(Nc3cc(C(C)(C)O)ccn3)nc(NC(C)(C)CO)c2c1=O` [compound 701]: 69 nM; `CCn1ccc2cc(Nc3cc(C(C)(C)O)ccn3)nc(NC3(C)CCC3)c2c1=O` [compound 702]: 85 nM.
As for `CCn1ccc2cc(Nc3cc(C(C)(C)O)ccn3)nc(NC3(CO)CCC3)c2c1=O` [compound 703], the figure is 85 nM; as for `CC1(Nc2nc(Nc3cc(C(C)(C)O)ccn3)cc3ccn(CCO)c(=O)c23)CCC1` [compound 704], 45 nM; as for `CC(C)Nc1nc(Nc2cc(C(C)(C)O)ccn2)cc2ccn(CCO)c(=O)c12` [compound 705], 14 nM.
Turning to `CC(C)n1ccc2cc(Nc3cc(C(C)(C)O)ccn3)nc(N[C@H]3CC[C@@H](O)CC3)c2c1=O` [compound 706], the IC50 stood at 55 nM.
Next, `CC(C)(C)Nc1nc(Nc2cc(CN)ccn2)cc2ccn(CCO)c(=O)c12` [compound 707]: 59 nM.
Regarding `CCC(O)(CC)c1ccnc(Nc2cc3ccn(CCO)c(=O)c3c(NC(C)(C)C)n2)c1` [compound 708], the IC50 is 595 nM.
As for `COCc1ccnc(Nc2cc3ccn(CCO)c(=O)c3c(NC(C)(C)C)n2)c1` [compound 709], the figure is 11 nM.
`CCC(O)c1ccnc(Nc2cc3ccn(CCO)c(=O)c3c(NC(C)(C)C)n2)c1` (centres unmarked) [compound 710]: the IC50 was found to be 37 nM.
Next, `CC(C)(C)Nc1nc(Nc2cc(C(C)(C)N)ccn2)cc2ccn(CCO)c(=O)c12` [compound 711, 6-(4-(2-aminopropan-2-yl)pyridin-2-ylamino)-8-(tert-butylamino)-2-(2-hydroxyethyl)-2,7-naphthyridin-1(2H)-one]: 197 nM; `CC(N)c1ccnc(Nc2cc3ccn(CCO)c(=O)c3c(NC(C)(C)C)n2)c1` (centres unmarked) [compound 712, 6-(4-(1-aminoethyl)pyridin-2-ylamino)-8-(tert-butylamino)-2-(2-hydroxyethyl)-2,7-naphthyridin-1(2H)-one]: 53 nM; `C[C@@H](O)c1ccnc(Nc2cc3ccn(CCO)c(=O)c3c(NC(C)(C)C)n2)c1` [compound 713]: 3 nM.
In the case of `C[C@H](O)c1ccnc(Nc2cc3ccn(CCO)c(=O)c3c(NC(C)(C)C)n2)c1` [compound 714], the IC50 was found to be 13 nM.
With `CC(O)c1ccnc(Nc2cc3ccn(CCO)c(=O)c3c(NC(C)(C)C)n2)n1` (centres unmarked) [compound 715], the IC50 came out at 679 nM.
On to `CC(C)(C)Nc1nc(Nc2cc(C(C)(C)O)ncn2)cc2ccn(CCO)c(=O)c12` [compound 716], for which the half-inhibitory concentration (IC50) was 35 nM.
As for `CC(C)(C)Nc1nc(Nc2cc(C(C)(C)O)c(F)cn2)cc2ccn(CCO)c(=O)c12` [compound 717], the figure is 18 nM.
As for `CC(O)c1ccnc(Nc2cc3ccn(CCO)c(=O)c3c(NC3(C)CCC3)n2)c1` (centres unmarked) [compound 718], the IC50 came out at 11 nM.
